Data as given in patent US20110046079A1, “Use of Proton Pump Inhibitors as Drug Delivery Adjuvants” (priority 2008, published 2011).
Several values for one entry are separate records, joined by “and”; a condition that tells them apart may be missing. Equal values may be shown once.

Legend:
[1] = test system: rat gastric corpus mucosa; assay: Transepithelial flux of 14C-labeled probes (mannitol, sucrose, polyethylene glycol) before and after PPI; conditions: for Post-Omeorazole transmucosal flux / Pre-Omeorazole transmucosal flux: mean +/- SE, 3 experiments; for Pre-Omeorazole transmucosal flux: before 200 μM omeprazole
Procedure: In each experiment, one adult male Sprague Dawley rat was sacrificed by decapitation. The stomach was removed, flushed, and stripped of its outer serosal membrane, while being frequently moistened with chilled, unbuffered saline. Two pieces of corpus mucosa were mounted in modified Ussing chambers, with exposed tissue surface area of 1.13 cm^2. Chambers were connected to gas-lift reservoirs, with a fluid volume of 17 mL per hemichamber. The mucosal hemichamber was filled with unbuffered saline (with 17 mM glucose) and kept aerated and perfused with 100% O2 at 37° C. […] Water-jacketed reservoirs maintained chamber saline at 37° C.
KRB was adjusted to a pH of 7.3-7.4.
Unbuffered saline was gassed with 100% O2 and was used to bathe the mucosal side of the gastric mucosa.
Approximately 30 minutes after tissues were mounted in Ussing chambers, dibutyrl cyclic AMP (dB-cAMP) (Sigma, St. Louis, Mo.) was added to the serosal sides of both chambers to a concentration of 1 mM in order to stimulate acid output by the tissue.
Three experiments were performed with each PPI, examining gastric permeability to ^14C-mannitol.
Three experiments were performed at each omeprazole concentration.

[2] = test system: rat gastric corpus mucosa; assay: Acid secretion (mucosal fluid pH) of dB-cAMP stimulated tissue in Ussing chambers; conditions: ex vivo addition; 200 μM omeprazole, 200 μM lansoprazole, 100 μM esomeprazole
Procedure: Water-jacketed reservoirs maintained chamber saline at 37° C.
In order to confirm stimulation of acid secretion by secretagogue addition and to verify the efficacy of the PPI, mucosal fluid compartment pH was recorded at intervals throughout the experiment with a manual electrode (Denver Instruments, Denver, Colo.). Ag/AgCl voltage and current electrodes were used to measure PD (potential difference) and ISC (short circuit current) approximately every five minutes for the duration of the experiment, as previously described (Hameed et al. (2004) Dig. Dis. Sci., 49:1381-1386), using two single-channel current/voltage clamps (McGrath Research and Technology). Ohm's Law was used to calculate transepithelial electrical resistance across the tissue.
Mucosal and serosal saline pH measurements were taken at approximately five minute intervals using a manual electrode (Denver Instruments) to ensure that the tissue was secreting acid. Mucosal pH readings were also taken before and after the addition of omeprazole to document the action of omeprazole on inhibiting acid secretion. Tissue viability was confirmed at the end of each experiment by tissue exposure to 10 mM amiloride in the mucosal fluid compartment in order to inhibit short circuit current.

[3] = test system: rat gastric corpus mucosa; assay: Transepithelial drug flux studies (3H-digoxin, 14C-phenytoin, mucosal to serosal) before and after omeprazole or DMSO; assay type: in vitro ADME; conditions: 0.1 mM probe
Procedure: Sprague Dawley male rats weighing approximately 400 grams were sacrificed by decapitation and the stomach was quickly removed, cut along the greater curvature, and flushed of luminal contents. The serosal membrane was then stripped from the corpus region and two equal sized pieces of corpus mucosa were mounted in two separate Ussing chambers with exposed tissue areas of 1.13 cm^2. Chambers were connected to 15 mL gas-lift reservoirs filled with un-buffered saline aerated with 100% O2 and bicarbonate-buffered saline aerated with 95% O2/5% CO2 on the mucosal and serosal sides, respectively. Saline temperature was held constant at 37° C. by a jacketed water bath surrounding the reservoirs. 30 minutes at 37° C. was allowed for tissue equilibration. In paired experiments, one tissue served as (vehicle) ‘control’, and the other as omeprazole-treated ‘experimental’.
After 30 minutes of tissue equilibration time in Ussing chambers, dibutyrl cyclic AMP (dBcAMP) (Sigma) was added to a final concentration of 1 mM to the serosal fluid chambers to stimulate acid secretion. […] The addition of the isotope marked the beginning of the flux period. 150 μL or 250 μL samples were taken from the serosal fluid compartment (opposite from which the isotope was added) for liquid scintillation counting (LSC). Samples were initially taken at 30 minute intervals for 90 minutes for the ^14C-phenytoin flux or at 15 minute intervals for 75 minutes for the ^3H-digoxin flux to establish the basal permeability rate (ρmoles/min/cm^2) across the tissue. 200 μM omeprazole (Sigma) (in DMSO) was then added to the mucosal and serosal sides of one chamber and an equivalent amount of DMSO (Sigma) was also added to both sides of the control chamber. Another series of serosal fluid samples were taken for LSC at 15 or 30 minute intervals for the remaining 60 minutes of ^3H-digoxin or ^14C-phenytoin flux experiments, respectfully, to determine flux rate of the radiolabeled drugs after omeprazole addition. In all cases of fluid sampling for liquid scintillation counting, an equal amount of fresh buffered saline was added back to the serosal side to prevent hydrostatic gradients from developing across the tissue. The flux of each isotope (ρmole/min/cm^2) was determined by calculating the linear regression slope of the graph of cpm versus time, and converting cpm to picomoles after determining the specific activity of the drug in the mucosal fluid.
To observe if the omeprazole-induced leak allows for permeation of certain small molecule drugs, ^3H-digoxin was added to the mucosal fluid compartment and saline samples were taken at 15 minute intervals from the serosal fluid compartments for a 135-minute flux period. Omeprazole and/or DMSO were added to their respective tissues 75 minutes after the addition of the isotope. Radioactivity present in the serosal fluid compartment was measured as a function of time before and after the addition of omeprazole or DMSO.

healthy controls [4] = assay: Sucrose leak test before and after five days of omeprazole or famotidine; assay type: in vivo, human
Procedure: An 8 hour overnight urine sample was collected in a container with 5 ml of 10% thymol in isopropanol as antimicrobial preservative. A courier service picked up urine containers at the patient's home and delivered them to the research laboratory. Total urine volume and refractive index were measured and recorded. […] This amount of sucrose equates to the amount of sucrose which leaked from the upper GI lumen.
H-2 blockers such as PEPCID® (famotidine) also cause a GI leak. The instant study was first performed with 20 subjects, all healthy controls. Randomly 10 were put on PPIs (20 mg of omeprazole), 10 on H-2 blockers (40 mg of famotidine). These amounts are standard for acid suppression therapy. […] They were given doses of these drugs in the morning for five days. A sucrose leak test was done the night of the fifth and last day.
Therefore, a second H-2 blocker study was performed looking at leak in an n=5 group but doing evening doses of famotidine and maintaining the other aspects of the above study, with the post H-2 blocker leak test performed again the night of the 5th dose, but now only with a 4-6 hours after the 5th and final dose.

healthy controls [5] = assay: Sucrose permeability test, time course and reversibility of the esomeprazole-induced leak; assay type: in vivo, human; conditions: for durations with statistically significant elevation of sucrose leak: esomeprazole 40 mg once/day for 1, 2, 3, 5, 7 or 9 days, P<0.05
Procedure: Healthy controls were recruited without regard to gender or ethnicity, from an age range of 18-80. Their exclusion criteria were no prior gastrointestinal surgery and no current gastrointestinal disease. Because of the nature of the permeability test being used, diabetics and those with renal insufficiency were likewise excluded. Those participating did so only after personally signing an informed consent that was approved prior by the Lankenau Hospital Institutional Review Board. […] An 8 hour overnight urine sample was collected in a container with 5 ml of 10% thymol in isopropanol as antimicrobial preservative. A courier service picked up urine containers at the patient's home and delivered them to the research laboratory. Total urine volume and refractive index were measured and recorded. […] This amount of sucrose equates to the amount of sucrose which leaked from the upper GI lumen. The next study was begun to reduce the (disease) variables that may be at play in working with a GERD population and simultaneously assess the time course with which a PPI leak may establish. As described above, a volunteer group of healthy controls without any active GI disease or prior surgeries was recruited. Volunteers were randomly assigned to duration groups of 1, 2, 3, 5, 7 or 9 days. […] As in FIG. 2, a rising bar indicates greater leak in the second test, a falling bar indicates a lower leak at the second test. […] However the average leak of the second test was greater than the first by the second day and then consistently climbed further out through the nine days. […] The figure gives the average leak of the first (pre esomeprazole) test, the second test and the third (4 day post-esomeprazole) test. Although the second test is statistically different from the first or the third (P<0.01), the third test is not statistically different from the first, evidencing the relative rapid reversibility of the leak phenomenon.

[6] = test system: first-time-presenting GERD patients; assay: Sucrose permeability test before and at the end of an 8 week course of esomeprazole (NEXIUM); assay type: in vivo, human
Procedure: Patients with GERD were recruited from a primary care practice, to which they were presenting for the first time with their disease. […] With the exception of their GERD, these patients met the above criteria at the time of their recruitment, and were recruited in a similar manner. […] An 8 hour overnight urine sample was collected in a container with 5 ml of 10% thymol in isopropanol as antimicrobial preservative. A courier service picked up urine containers at the patient's home and delivered them to the research laboratory. Total urine volume and refractive index were measured and recorded. […] This amount of sucrose equates to the amount of sucrose which leaked from the upper GI lumen. The next study posed the question of whether PPI therapy would improve barrier function in the upper GI tract by allowing for reduction of mucosal inflammation and damage ensuing from esophagitis and gastritis. An early hypothesis was that PPI therapy would improve barrier function in the upper GI tract of first-time-presenting GERD patients, by allowing for reduction of mucosal inflammation and damage ensuing from any esophagitis or gastritis. […] As previously mentioned, this was in contrast to an earlier study (Mullin et al. (2006) Dig. Dis. Sci., 51:2326-36) which utilized GERD patients who had been previously diagnosed and under the care of a gastroenterologist. […] A 4 week follow up check was performed on all patients, and all reported significant symptom improvement with mild if any side effects.

[7] = 0.1 mM 14C-labeled probe, after 200 μM omeprazole

SMILES: Cc1c(OCC(F)(F)F)ccnc1C[S+]([O-])c1nc2ccccc2[nH]1 (centres unmarked) [lansoprazole, 2-(((3-methyl-4-(2,2,2-trifluoro-ethoxy)-2-pyridinyl)methyl)sulfinyl)-1H benzimidazole]
- % Increase in Flux of 14C-[D]-mannitol ([1]; 200 μM PPI): 83.35%
- % Increase in Flux of 14C-[D]-mannitol ([1]; 200 μM PPI, listed as Lansoprazole): 83.35 +/− 20.71%
- effect on acid secretion (rate of mucosal acidification) [2]: inhibited acid secretion

SMILES: OC[C@@H](O)[C@@H](O)[C@H](O)[C@H](O)CO [[D]-Mannitol]
- % Increase in Flux After Omeprazole ([3]; 200 μM omeprazole): 68.7% ± 8.4%
- Post-Omeprazole Flux Value ([3]; after 200 μM omeprazole, corrected by TLC): 31.6 ± 3.9 ρmole/min/cm^2
- Pre-Omeprazole Flux Value ([3]; before 200 μM omeprazole, 3 experiments): 21.2 ± 5.3 ρmole/min/cm^2
- % Increase in Flux After DMSO ([3]; vehicle control tissue): 23.0% ± 15.3%
- Post-DMSO Flux Value ([3]; vehicle control tissue, corrected by TLC): 27.2 ± 2.4 ρmole/min/cm^2
- Pre-DMSO Flux Value ([3]; vehicle control tissue, mean ± SEM, 3 experiments): 22.7 ± 3.3 ρmole/min/cm^2
- % Increase in Flux [1, 7]: 68.72% and 68.72 +/− 8.32%
- Post-Omeorazole transmucosal flux [1, 7]: 37.81 +/− 1.32 ρmoles/min/cm^2
- Pre-Omeorazole transmucosal flux ([1]; 0.1 mM 14C-labeled probe): 22.45 +/− 0.61 ρmoles/min/cm^2

SMILES: NC(N)=Nc1nc(CSCCC(N)=NS(N)(=O)=O)cs1 [famotidine]
- pre-med sucrose leak (healthy controls [4]; baseline before medication, n=10 per group, SEM): 50 mg
- pre H-2 blocker leak, second study (healthy controls [4]; baseline, n=5, SEM): 46 mg
- post H-2 blocker leak, second study (healthy controls [4]; evening doses of famotidine, test 4-6 hours after 5th dose, n=5, P=0.03): 132 mg
- post med sucrose leak (healthy controls [4]; morning doses for five days (20 mg omeprazole or 40 mg famotidine), test night of fifth day, n=10): 110 mg

SMILES: COc1ccc2nc([S@@+]([O-])Cc3ncc(C)c(OC)c3C)[nH]c2c1 [esomeprazole]
- sucrose leak in third test (reversibility) (healthy controls [5]; 4 days after finishing 5, 7 or 9 day esomeprazole course, n=9): decreases to near baseline
- leak in second test greater than first (pre esomeprazole) test, average (healthy controls [5]; day 9 of esomeprazole 40 mg once/day): ~400 mg
- durations with statistically significant elevation of sucrose leak (healthy controls [5]): fifth day
- durations with statistically significant elevation of sucrose leak (healthy controls [5]; listed as NEXIUM®): 5, 7 and 9 day durations
- % Increase in Flux of 14C-[D]-mannitol ([1]; 100 μM PPI): 101.62%
- % Increase in Flux of 14C-[D]-mannitol ([1]; 100 μM PPI, listed as Esomeprazole): 101.62 +/− 10.04%
- average initial sucrose leak ([6]; before esomeprazole, 26 patients, mean, SEM): 72 mg
- average initial leak, all patients ([6]; before esomeprazole, all 37 patients): 179 mg
- patients whose post-NEXIUM sucrose leak was smaller ([6]; end of 8 week course vs before): 4 of 25
- patients whose post-NEXIUM sucrose leak was greater ([6]; end of 8 week course vs before, total sucrose in overnight urine): 21 of 26
- patients with increased leak above the 200 mg threshold level ([6]; end of 8 week esomeprazole 40 mg/day): 14 of 21
- mean final sucrose leak ([6]; end of 8 week esomeprazole 40 mg/day, 26 patients, mean, SEM): 325 mg
- final leak, all patients ([6]; end of 8 week esomeprazole 40 mg/day, all 37 patients): 307 mg
- effect on acid secretion (rate of mucosal acidification) [2]: inhibited acid secretion

SMILES: OC[C@H]1O[C@@](CO)(O[C@H]2O[C@H](CO)[C@@H](O)[C@H](O)[C@H]2O)[C@@H](O)[C@@H]1O [Sucrose]
- Post-Omeorazole transmucosal flux [1, 7]: 24.19 +/− 4.67 ρmoles/min/cm^2
- Pre-Omeorazole transmucosal flux ([1]; 0.1 mM 14C-labeled probe): 11.71 +/− 3.39 ρmoles/min/cm^2
